Measurements from ChEMBL document CHEMBL5154691, “Discovery of novel verinurad analogs as dual inhibitors of URAT1 and GLUT9 with improved Druggability for the treatment of hyperuricemia” (Eur J Med Chem, 2022).

Experiments:
Mus musculus [1] = assay: Anti-hyperuricemic activity against xanthine and potassium oxonate-induced acute hyperuricemia Kunming mouse model assessed as serum uric acid concentration at 10 mg/kg, po measured after 3 hrs (reference value: 846.22 uM); format: functional
[2] = molecular target: T1, Solute carrier family 22 member 12 (Homo sapiens, UniProt Q96S37); assay: Inhibition of URAT1 (unknown origin)-mediated 14C-uric acid uptake expressed in HEK293 cells using 14C-uric acid as substrate preincubated for 30 mins followed by substrate addition and measured after 15 mins by liquid scintillation counting analysis; format: cell-based
T1 sequence (Q96S37 whole entry): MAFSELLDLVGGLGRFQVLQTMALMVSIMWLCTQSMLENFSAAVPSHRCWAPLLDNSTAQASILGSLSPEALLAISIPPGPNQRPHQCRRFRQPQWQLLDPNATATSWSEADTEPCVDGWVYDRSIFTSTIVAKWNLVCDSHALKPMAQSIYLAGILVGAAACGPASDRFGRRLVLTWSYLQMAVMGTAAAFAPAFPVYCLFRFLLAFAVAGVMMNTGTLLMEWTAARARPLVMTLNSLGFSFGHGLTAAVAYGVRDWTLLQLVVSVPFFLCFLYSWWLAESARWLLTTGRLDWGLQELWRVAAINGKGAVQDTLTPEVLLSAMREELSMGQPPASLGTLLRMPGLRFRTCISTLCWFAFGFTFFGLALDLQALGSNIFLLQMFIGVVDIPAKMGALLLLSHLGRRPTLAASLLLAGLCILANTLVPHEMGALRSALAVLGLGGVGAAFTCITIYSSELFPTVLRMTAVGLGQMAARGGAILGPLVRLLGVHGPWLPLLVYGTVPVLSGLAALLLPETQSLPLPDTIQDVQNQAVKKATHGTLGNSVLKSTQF

[3] = Cmax in Sprague-Dawley rat at 5 mg/kg, iv measured upto 36 hrs by LC-MS/MS analysis; format: ADME, organism-based; parameters: time < 36 hrs, dose 5 mg/kg, route iv; settings: in vivo
[4] = Inhibition of URAT1 I481M mutant (unknown origin)-mediated 14C-uric acid uptake expressed in HEK293 cells using 14C-uric acid as substrate preincubated for 30 mins followed by substrate addition and measured after 15 mins by liquid scintillation counting analysis; format: cell-based; settings: Homo sapiens
[5] = molecular target: T2, Broad substrate specificity ATP-binding cassette transporter ABCG2 (Homo sapiens, UniProt Q9UNQ0); assay: Inhibition of ABCG2 (unknown origin) expressed in HEK293 cells membrane vesicles assessed as inhibition of ATP-induced 14C-uric acid uptake preincubated for 15 mins followed by incubation with ATP and substrate for 5 mins by liquid scintillation counting analysis; format: toxicity, cell membranes, Membrane vesicle
T2 sequence (Q9UNQ0 whole entry): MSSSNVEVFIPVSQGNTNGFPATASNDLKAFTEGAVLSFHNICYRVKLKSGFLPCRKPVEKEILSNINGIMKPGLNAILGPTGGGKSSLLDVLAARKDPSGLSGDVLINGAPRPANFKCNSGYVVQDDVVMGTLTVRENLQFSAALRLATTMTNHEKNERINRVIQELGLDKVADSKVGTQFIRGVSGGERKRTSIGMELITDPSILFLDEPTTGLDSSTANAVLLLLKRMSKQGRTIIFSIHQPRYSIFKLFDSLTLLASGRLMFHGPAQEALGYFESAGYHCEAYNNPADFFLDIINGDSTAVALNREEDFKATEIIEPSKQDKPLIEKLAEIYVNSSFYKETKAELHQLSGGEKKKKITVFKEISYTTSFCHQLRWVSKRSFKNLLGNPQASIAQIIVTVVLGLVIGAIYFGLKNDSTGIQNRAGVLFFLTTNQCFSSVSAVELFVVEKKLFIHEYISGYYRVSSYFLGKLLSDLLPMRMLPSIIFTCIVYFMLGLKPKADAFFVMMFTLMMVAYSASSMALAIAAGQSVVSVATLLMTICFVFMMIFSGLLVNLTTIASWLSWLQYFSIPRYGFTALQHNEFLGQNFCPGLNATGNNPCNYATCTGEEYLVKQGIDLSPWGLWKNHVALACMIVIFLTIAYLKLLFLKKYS

Mus musculus [6] = assay: Anti-hyperuricemic activity against xanthine and potassium oxonate-induced acute hyperuricemia Kunming mouse model assessed as increase in urine uric acid concentration at 10 mg/kg, po measured for 24 hrs; format: functional
[7] = Tmax in Sprague-Dawley rat at 5 mg/kg, iv measured upto 36 hrs by LC-MS/MS analysis; format: ADME, organism-based; settings: in vivo
[8] = Half life in Sprague-Dawley rat at 5 mg/kg, po measured upto 36 hrs by LC-MS/MS analysis; format: ADME, organism-based; settings: in vivo
[9] = AUC (0 to infinity) in Sprague-Dawley rat at 5 mg/kg, iv by LC-MS/MS analysis; format: ADME, organism-based; parameters: time infinity, dose 5 mg/kg, route iv; settings: in vivo
[10] = MRT (0 to infinity) in Sprague-Dawley rat at 5 mg/kg, po by LC-MS/MS analysis; format: ADME, organism-based; settings: in vivo
[11] = MRT (0 to infinity) in Sprague-Dawley rat at 5 mg/kg, iv by LC-MS/MS analysis; format: ADME, organism-based; settings: in vivo
[12] = Oral bioavailability in Sprague-Dawley rat at 5 mg/kg measured upto 36 hrs by LC-MS/MS analysis; format: ADME, organism-based; settings: in vivo
[13] = Renal toxicity in xanthine and potassium oxonate-induced acute hyperuricemia Kunming mouse model assessed as serum creatinine level at 10 mg/kg, po measured after 3 hrs; format: organism-based; settings: in vivo
[14] = Inhibition of URAT1 R487K mutant (unknown origin)-mediated 14C-uric acid uptake expressed in HEK293 cells using 14C-uric acid as substrate preincubated for 30 mins followed by substrate addition and measured after 15 mins by liquid scintillation counting analysis; format: cell-based; settings: Homo sapiens
[15] = Inhibition of URAT1 R477K mutant (unknown origin)-mediated 14C-uric acid uptake expressed in HEK293 cells using 14C-uric acid as substrate preincubated for 30 mins followed by substrate addition and measured after 15 mins by liquid scintillation counting analysis; format: cell-based; settings: Homo sapiens
[16] = Inhibition of URAT1 F241Y mutant (unknown origin)-mediated 14C-uric acid uptake expressed in HEK293 cells using 14C-uric acid as substrate preincubated for 30 mins followed by substrate addition and measured after 15 mins by liquid scintillation counting analysis; format: cell-based; settings: Homo sapiens
[17] = Inhibition of URAT1 S35N mutant (unknown origin)-mediated 14C-uric acid uptake expressed in HEK293 cells using 14C-uric acid as substrate preincubated for 30 mins followed by substrate addition and measured after 15 mins by liquid scintillation counting analysis; format: cell-based; settings: Homo sapiens

In the case of `N#Cc1ccc(Nc2cnccc2SCc2ccccc2C(=O)[O-])c2ccccc12.[Na+]`, the Activity (Mus musculus [1]) is reported as 645.8 µM, the IC50 [2] is reported as 240 nM and the Cmax [3] is reported as 11100 ng/mL. The IC50 [4] was 310 nM, the IC50 [5] was 26700 nM and the Activity (Mus musculus [6]) was 2444.24 µM. It also gave a Tmax [7] of 0.17 h, a half-life [8] of 5.14 h and an AUC(0-inf) [9] of 18500 ng·h/mL. For the same compound, the MRT inf [10] was 3.17 h, the MRT inf [11] was 4.8 h and the bioavailability [12] was 30.1%. For the same compound, the Activity [13] was “Non-Toxic”, the IC50 [14] was 1890 nM and the IC50 [15] was 2170 nM. It also gave an IC50 [16] of 310 nM and an IC50 [17] of 3140 nM.
